Measurements taken from ChEMBL document CHEMBL1126617, “A topochemical approach to explain morphiceptin bioactivity” (J Med Chem, 1993).

Columns and labels:
[1] = target: Delta-type opioid receptor (Mus musculus, UniProt P32300); assay: In vitro inhibitory activity against delta opioid receptor using mouse vas deferens (MVD) assay; assay type: tissue-based
[2] = target: Mu-type opioid receptor (Cavia porcellus, UniProt P97266); assay: In vitro inhibitory activity against mu opioid receptor using guinea pig ileum (GPI) assay; assay type: tissue-based
Chain of Mu-type opioid receptor (P97266 whole entry): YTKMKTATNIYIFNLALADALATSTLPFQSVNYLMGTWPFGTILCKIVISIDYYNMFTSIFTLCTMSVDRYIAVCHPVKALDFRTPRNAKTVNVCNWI

Chain of Delta-type opioid receptor (P32300 whole entry): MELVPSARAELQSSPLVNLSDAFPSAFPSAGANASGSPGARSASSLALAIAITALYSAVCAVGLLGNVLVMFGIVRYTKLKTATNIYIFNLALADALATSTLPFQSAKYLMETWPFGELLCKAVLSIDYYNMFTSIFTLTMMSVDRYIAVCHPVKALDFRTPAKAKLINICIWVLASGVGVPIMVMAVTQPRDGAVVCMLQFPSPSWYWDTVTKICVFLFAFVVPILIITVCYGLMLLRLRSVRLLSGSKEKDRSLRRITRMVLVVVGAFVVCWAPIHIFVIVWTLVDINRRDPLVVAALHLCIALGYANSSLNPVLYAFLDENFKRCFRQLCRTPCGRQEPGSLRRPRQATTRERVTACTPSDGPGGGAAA

CN(C(=O)[C@@H]1CCCN1C(=O)[C@@H](N)Cc1ccc(O)cc1)[C@H](Cc1ccccc1)C(=O)N1CCC[C@@H]1C(N)=O
IC50 [1]: 565 µM
IC50 [2]: 2.66 µM

CN(C(=O)[C@@H]1CCCN1C(=O)[C@@H](N)Cc1ccc(O)cc1)[C@H](Cc1ccccc1)C(=O)N1CCC[C@H]1C(N)=O
IC50 [1]: > 1000 µM
IC50 [2]: > 100 µM

CN(C(=O)[C@@H]1CCCN1C(=O)[C@@H](N)Cc1ccc(O)cc1)[C@@H](Cc1ccccc1)C(=O)N1CCC[C@H]1C(N)=O
IC50 [1]: 1.79 µM
IC50 [2]: 0.17 µM

NC(=O)[C@H]1CCCN1C(=O)[C@@H](Cc1ccccc1)NC(=O)[C@@H]1CCCN1C(=O)[C@@H](N)Cc1ccc(O)cc1
IC50 [1]: 4.81 µM
IC50 [2]: 0.557 µM

NC(=O)[C@@H]1CCCN1C(=O)[C@@H](Cc1ccccc1)NC(=O)[C@@H]1CCCN1C(=O)[C@@H](N)Cc1ccc(O)cc1
IC50 [1]: 0.594 µM
IC50 [2]: 0.109 µM

C[C@@H](C(=O)N[C@@H](Cc1ccccc1)C(=O)N1CCC[C@@H]1C(N)=O)N(C)C(=O)[C@@H](N)Cc1ccc(O)cc1
IC50 [1]: 0.202 µM
IC50 [2]: 0.0306 µM

C[C@H](NC(=O)[C@@H](N)Cc1ccc(O)cc1)C(=O)N[C@@H](Cc1ccccc1)C(=O)N1CCC[C@@H]1C(N)=O
IC50 [1]: > 100 µM

NC(=O)[C@H]1CCCN1C(=O)[C@H](Cc1ccccc1)NC(=O)[C@@H]1CCCN1C(=O)[C@@H](N)Cc1ccc(O)cc1
IC50 [1]: 1.51 µM
IC50 [2]: 0.0287 µM

CN(C(=O)[C@@H]1CCCN1C(=O)[C@@H](N)Cc1ccc(O)cc1)[C@@H](Cc1ccccc1)C(=O)N1CCC[C@@H]1C(N)=O
IC50 [1]: 1.25 µM
IC50 [2]: 0.0207 µM

NC(=O)[C@@H]1CCCN1C(=O)[C@H](Cc1ccccc1)NC(=O)[C@@H]1CCCN1C(=O)[C@@H](N)Cc1ccc(O)cc1 [MORPHICEPTIN]
IC50 [1]: 3.69 µM
IC50 [2]: 0.552 µM
